Test results as given in US20170020838A1, “TREATMENT FOR RESPIRATORY DISEASE” (MUCOKINETICA LIMITED, priority 2014, published 2017).

Biological target: T1, Amiloride-sensitive sodium channels (ENaC) (Sus scrofa, UniProt A0A480QJ99+F1RPF1+I3LGX7)
T1 construct: placed inside the trachea in contact with the tracheal epithelium; from tissue; host or cells: ex vivo pig trachea (tracheal epithelium)
T1 sequence (A0A480QJ99 1-650): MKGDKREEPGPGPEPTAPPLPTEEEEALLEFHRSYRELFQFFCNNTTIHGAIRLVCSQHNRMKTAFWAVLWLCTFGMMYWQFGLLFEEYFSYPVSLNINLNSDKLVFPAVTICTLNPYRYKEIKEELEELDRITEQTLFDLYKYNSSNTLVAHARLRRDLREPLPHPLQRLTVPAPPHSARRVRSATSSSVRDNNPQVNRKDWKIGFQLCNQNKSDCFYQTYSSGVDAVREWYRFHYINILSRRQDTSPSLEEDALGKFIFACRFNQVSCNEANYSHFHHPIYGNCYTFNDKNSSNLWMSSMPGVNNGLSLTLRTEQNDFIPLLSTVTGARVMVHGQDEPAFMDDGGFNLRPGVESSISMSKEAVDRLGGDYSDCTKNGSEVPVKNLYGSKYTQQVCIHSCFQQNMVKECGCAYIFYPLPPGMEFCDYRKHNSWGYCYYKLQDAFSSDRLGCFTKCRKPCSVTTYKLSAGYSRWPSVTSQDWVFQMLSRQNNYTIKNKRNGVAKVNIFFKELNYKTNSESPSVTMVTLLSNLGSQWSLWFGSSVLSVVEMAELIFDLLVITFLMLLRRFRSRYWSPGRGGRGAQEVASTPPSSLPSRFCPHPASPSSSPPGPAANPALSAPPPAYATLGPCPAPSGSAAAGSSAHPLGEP
T1 sequence (I3LGX7 1-644): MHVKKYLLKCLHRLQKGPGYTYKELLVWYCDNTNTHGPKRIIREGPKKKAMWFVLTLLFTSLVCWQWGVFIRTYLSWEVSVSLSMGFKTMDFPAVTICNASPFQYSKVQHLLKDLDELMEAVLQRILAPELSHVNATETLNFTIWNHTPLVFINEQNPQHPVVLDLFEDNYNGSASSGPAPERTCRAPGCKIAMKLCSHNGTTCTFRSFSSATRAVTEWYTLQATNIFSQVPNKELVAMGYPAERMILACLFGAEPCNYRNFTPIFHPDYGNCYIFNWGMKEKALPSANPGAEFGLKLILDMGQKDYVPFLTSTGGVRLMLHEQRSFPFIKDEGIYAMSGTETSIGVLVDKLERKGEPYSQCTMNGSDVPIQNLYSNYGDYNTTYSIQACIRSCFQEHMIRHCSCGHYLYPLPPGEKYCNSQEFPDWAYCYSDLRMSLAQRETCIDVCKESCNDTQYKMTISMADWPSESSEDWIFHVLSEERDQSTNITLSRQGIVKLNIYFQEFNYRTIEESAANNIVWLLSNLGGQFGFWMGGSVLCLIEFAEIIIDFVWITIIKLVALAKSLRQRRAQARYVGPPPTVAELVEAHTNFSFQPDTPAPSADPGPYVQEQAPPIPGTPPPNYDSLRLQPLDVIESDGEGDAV
T1 sequence (F1RPF1 1-652): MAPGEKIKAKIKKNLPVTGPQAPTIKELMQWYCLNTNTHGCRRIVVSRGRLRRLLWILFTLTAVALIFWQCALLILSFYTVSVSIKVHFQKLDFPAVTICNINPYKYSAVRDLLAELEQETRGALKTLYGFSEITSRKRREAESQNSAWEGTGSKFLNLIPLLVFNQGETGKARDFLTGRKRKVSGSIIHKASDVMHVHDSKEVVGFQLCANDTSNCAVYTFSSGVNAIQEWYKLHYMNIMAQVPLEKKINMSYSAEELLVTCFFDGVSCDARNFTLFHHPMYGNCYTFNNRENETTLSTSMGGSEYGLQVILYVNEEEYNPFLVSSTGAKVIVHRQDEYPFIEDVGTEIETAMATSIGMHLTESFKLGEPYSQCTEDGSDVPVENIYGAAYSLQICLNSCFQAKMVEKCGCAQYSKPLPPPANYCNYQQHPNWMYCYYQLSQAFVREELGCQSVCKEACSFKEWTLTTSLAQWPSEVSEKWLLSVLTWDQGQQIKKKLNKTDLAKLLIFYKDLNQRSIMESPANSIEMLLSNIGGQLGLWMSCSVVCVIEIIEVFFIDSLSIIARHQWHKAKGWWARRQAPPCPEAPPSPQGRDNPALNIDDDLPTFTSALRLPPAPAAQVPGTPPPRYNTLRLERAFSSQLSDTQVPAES
Assay: Amiloride-sensitive ENaC-dependent tracheal PD, ex vivo pig trachea
Details: for baseline tracheal PD during perfusion of the agent / responses to 5 min amiloride perfusion during perfusion of the agent: perfused in BSS: Rx 3.10^−5M alone, 50 mM sodium gluconate, 0.1 mM-UTP; for baseline tracheal PD during perfusion of the agent / responses to 5 min amiloride perfusion during perfusion of the agent / AUC of amiloride-sensitive ENaC-dependent tracheal PD responses, analysis of variance: +50 mM-NaCl, combinations with 10^−5 M Rx; for responses to 5 min amiloride perfusion during perfusion of the agent / AUC of amiloride-sensitive ENaC-dependent tracheal PD responses, analysis of variance: 100 mosM-mannitol; for AUC of amiloride-sensitive ENaC-dependent tracheal PD responses, analysis of variance: AUC normalised to average of first four peaks, Rx 3.10^−5M alone
Description: (§1) FIG. 1 A description of the equipment used to measure electrical potential difference (PD) across the pig trachea ex vivo (FIG. 1A). Pig tracheas placed on a sloping radiator heated at 37° C. A reference electrode consisting of silicone tubing filled with Signa electrode cream was attached to the outer surface of the trachea. A double lumen recording electrode (FIG. 1B) was placed inside the trachea in contact with the tracheal epithelium. The inner tubing of the recording electrode was used to perfuse onto the surface of the trachea buffer solutions and buffer solutions containing drugs and agents. The outer part of the recording electrode was also filled with Signa electrode cream. The ends of the electrodes not in contact with the trachea were placed in Ringer buffer solution. Electrical contact to calomel half-cells in 3M-KCl solution was achieved by silicone tubing bridges filled with Signa electrode cream. The calomel half-cells were connected to a high impedance digital electrometer (Agilent U1252A). Digital PD values were recorded continuously every 1 second for the duration each study and were filed onto a PC.
as §1, with “Pig” for “FIG. 1 A description of the equipment used to measure electrical potential difference (PD) across the pig trachea ex vivo (FIG. 1A). Pig”, “were obtained from” for “placed on”, “local abattoir or Veterinary University. The lumen of each trachea was cleaned by gentle irrigation with BSS.” for “sloping radiator heated at 37° C.”, “trachea according to the diagram in FIG. 1A. Pig tracheas were placed on a sloping radiator heated at 37° C.” for “trachea.”, “duration of” for “duration”
During each study the amiloride-sensitive, ENaC-dependent component of tracheal PD was determined periodically by perfusion (at 1 ml/min) of buffer solution containing 3×10^−6 M amiloride onto the epithelial surface of the trachea for 5 min, followed by washout for 10 minutes with buffer solution without amiloride. Each response to amiloride was quantified by measuring the area under the curve (AUC) response (mV.min) to amiloride perfusion and washout.

Row | baseline tracheal PD during perfusion of the agent | responses to 5 min amiloride perfusion during perfusion of the agent | AUC of amiloride-sensitive ENaC-dependent tracheal PD responses, analysis of variance | down-regulation of amiloride-sensitive ENaC-dependent tracheal PD responses, dose series (doses 3.10^−8 M, 10^−7 M, 3.10^−7 M, 10^−6 M, 3.10^−6 M, and 10^−5 M, all doses) | time for tracheal PD to reach plateau depolarisation following initiation of amiloride perfusion (3×10^−6 M amiloride perfused 5 min in BSS at 1 ml/min, mean of 23 tracheas) | time for tracheal PD to return to baseline after initiation of washout (after 5 min perfusion of amiloride, washout with BSS) | responses to 5 min amiloride perfusion on final perfusion with BSS without the agent (washout 60 min with BSS) | SMILES
1 | – | – | – | – | about 2 min | approximately 5 min | – | N=C(N)NC(=O)c1nc(Cl)c(N)nc1N [amiloride]
2 | – | decrease | significantly reduced | – | – | – | recover | OC[C@@H](O)[C@@H](O)[C@H](O)[C@H](O)CO [hyperosmotic mannitol, mannitol]

Continued, compound first:

Row | SMILES | baseline tracheal PD during perfusion of the agent | responses to 5 min amiloride perfusion during perfusion of the agent | AUC of amiloride-sensitive ENaC-dependent tracheal PD responses, analysis of variance | down-regulation of amiloride-sensitive ENaC-dependent tracheal PD responses, dose series (doses 3.10^−8 M, 10^−7 M, 3.10^−7 M, 10^−6 M, 3.10^−6 M, and 10^−5 M, all doses) | time for tracheal PD to reach plateau depolarisation following initiation of amiloride perfusion (3×10^−6 M amiloride perfused 5 min in BSS at 1 ml/min, mean of 23 tracheas) | time for tracheal PD to return to baseline after initiation of washout (after 5 min perfusion of amiloride, washout with BSS) | responses to 5 min amiloride perfusion on final perfusion with BSS without the agent (washout 60 min with BSS)
3 | O=c1ccn([C@@H]2O[C@H](COP(=O)(O)OP(=O)(O)OP(=O)(O)O)[C@@H](O)[C@H]2O)c(=O)[nH]1 [UTP, uridine 5′-triphosphate] | partially depolarise | decrease | – | – | – | – | –
4 | O=C([O-])[C@H](O)[C@@H](O)[C@H](O)[C@H](O)CO.[Na+] [hyperosmotic sodium gluconate, sodium gluconate] | partially depolarise | decrease | – | – | – | – | –
5 | N=C(N)Nc1ccc(C(=O)Oc2ccc3cc(C(=N)N)ccc3c2)cc1 [6-amidino-2-napthyl 4-guanidinobenzoate] | depolarise | decrease | significant reduction (p<0.0001) | Significant down-regulation | – | – | –
